Ends that are not written are not given here.
What was measured:
A. baumannii = assay type: cell-based; conditions: 18 h
Experimental: (§1) To examine antibacterial activity, we used minor modifications of a standard growth inhibition assay endorsed by the Clinical and Laboratory Standards Institute (CLSI), as previously described. Bacterial inocula for testing were prepared from exponential growth phase by diluting overnight cultures at 1:100 with fresh Tryptic soy broth (TSB) (Millipore Sigma, USA, Cat. No. 22092-500G) and incubating for an additional 3–4 h. Bacteria were spun at 3000× g for 10 min and the pellet was resuspended in phosphate-buffered saline (PBS) (Millipore Sigma, St Louis, MO, USA, Cat. No. P4417) to determine bacterial turbidity using a Den-1B densitometer (Grant Instruments, Beaver Falls, PA, USA) at 0.5 McFarland (unit of bacterial density) corresponding to […]. The prepared bacteria were incubated with each of the indicated peptides at a maximum test concentration of 16 µM and serially diluted in MHB2 and RPMI 1640 (Corning, NY, USA, Cat. No. 15-040-CM) at a 1:1 ratio. The plates were kept in an 8-drawer incubator for 18 h at 37 °C. A robotic system takes a plate from the drawer every hour and feeds a plate reader, which records the kinetics of bacterial growth at 570 nm to examine growth inhibition in real time (BioTek Instruments, Winooski, VT, USA). The minimum inhibitory concentration or MIC is the minimum peptide concentration that prevented bacterial growth, and it is objectively indicated by a flat (horizontal) line in the bacterial growth kinetic graph. Most assays are completed in duplicate. To assay for anti-biofilm activities, the 96-well plate from the growth inhibition assay is incubated for an additional 6 h (24 h total). The biomass was detected with crystal violet using a plate reader at A570, as previously described.
(§2) Figure 2 Comparative antibacterial activities of the H-RWV and L-RWV series. The 2 series were compared against MDR strains of 6 organisms as indicated. The test medium was composed of physiologically relevant RFM (60% RPMI plus 10% fetal bovine serum or FBS and 30% cation-adjusted MHB); endogenous AMP control was Indolicidin (Indo); small-molecule antibiotic controls were cefazolin, ceftazidime (Ceft), and meropenem (Mero). MIC, minimum inhibitory concentration with means represented by the black and red horizontal bars, which are used to determine the MOLs (minimum optimal lengths) indicated by the red and black arrows. (A–F) is based on the test organism as indicated. Data are representative of 2 independent trials. Corresponding Table 2 provides the mean MICs for the strains of each organism. The numbers stand for each peptide: 8, L/H-RWV8; 10, L/H-RWV10, etc.; red bar, mean MIC of L-RWV peptides and black bars, mean MIC of H-RWV peptides.

E. coli = assay type: cell-based; conditions: 18 h
Experimental: as §1, §2

E. faecium = assay type: cell-based; conditions: 18 h
Experimental: as §1, §2

Enterobacter spp. = assay type: cell-based; conditions: 18 h
Experimental: as §1, §2

K. pneumoniae = assay type: cell-based; conditions: 18 h
Experimental: as §1, §2

P. aeruginosa = assay type: cell-based; conditions: 18 h
Experimental: as §1, §2

S. aureus = assay type: cell-based; conditions: 18 h
Experimental: as §1, §2

[1] = system: S. aureus (SA719) biofilm; assay type: cell-based; conditions: 24 h
Experimental: as §1
Figure 3 Antibiofilm activities of the […] peptides. MBEC or minimum biofilm elimination concentration is the minimum concentration at which no biomass was detected by the crystal violet method. Standard deviations reflect differences between 2 independent trials. The dashed line is to clarify the mid-point between 0 and 5.

human red blood cells = test: Red blood cell lysis; assay type: cell-based; conditions: H-RWV16 versus L-RWV12
Experimental: Lytic effects on human red blood cells were examined as previously described. Briefly, RBCs were separated by histopaque differential centrifugation using blood anonymously obtained from Vitalant (Pittsburgh, PA, USA). For RBC lysis assay, the isolated RBCs were resuspended in PBS at a concentration of 5%. The peptides were serially diluted 2-fold in 100 µL of PBS with a starting concentration of 32 µM. A volume of 100 µL of the prepared 5% RBC solution was then added for a final concentration of 2.5% RBC and incubated for 1 h. After incubation, the plates were centrifuged at 1000× g for 7 min and the supernatant was removed to measure its OD. In parallel, a standard curve of RBC lysis was generated by lysing the RBCs with deionized water at […] RBC dilutions of 10, 20, 30, 40, 50, 60, 70, 80, 90, and 100% to determine the percentage of RBC lysis in the test samples. Both the treated test samples and standard curve were read at A570. Three independent trials of the experiment were conducted.
Figure 4 Human RBC lytic effects of the […] peptides. Indolicidin (Indo) was used as control; RBC lysis was assayed in PBS as described in Methods. For clarity, the dashed line indicates the 10% lysis mark across the graph as a critical point between minor (<10%) and moderate (>10%) RBC lysis.

With RRWWRRWW [H-RWV8] the “Mean MIC, A. baumannii” value (A. baumannii) was 24 ± 9.2 µM, the “Mean MIC, E. coli” value (E. coli) was 24 ± 8.8 µM and the “Mean MIC, E. faecium” value (E. faecium) was 32 µM. For the same sequence, the “Mean MIC, Enterobacter spp.” value (Enterobacter spp.) was 32 µM, the “Mean MIC, K. pneumoniae” value (K. pneumoniae) was 29 ± 7.1 µM and the “Mean MIC, P. aeruginosa” value (P. aeruginosa) was 27 ± 7.5 µM. For the same sequence, the “Mean MIC, S. aureus” value (S. aureus) was 29 ± 7 µM.
With RRRRWWWW [L-RWV8] the “Mean MIC, A. baumannii” value (A. baumannii) was 10.2 ± 0.9 µM, the “Mean MIC, E. coli” value (E. coli) was 16 µM and the “Mean MIC, E. faecium” value (E. faecium) was 30 ± 5 µM. For the same sequence, the “Mean MIC, Enterobacter spp.” value (Enterobacter spp.) was 30.2 ± 5.3 µM, the “Mean MIC, K. pneumoniae” value (K. pneumoniae) was 20 ± 7.4 µM and the “Mean MIC, P. aeruginosa” value (P. aeruginosa) was 30 ± 5.2 µM. For the same sequence, the “Mean MIC, S. aureus” value (S. aureus) was 20. ± 0.7 µM.
In the case of RRVWRWVRRWWR [H-RWV12], the “Mean MIC, A. baumannii” value (A. baumannii) is reported as 6 ± 2.3 µM, the “Mean MIC, E. coli” value (E. coli) is reported as 6.4 ± 2.2 µM and the “Mean MIC, E. faecium” value (E. faecium) is reported as 28 ± 10 µM. For the same sequence, the “Mean MIC, Enterobacter spp.” value (Enterobacter spp.) was 28 ± 7.4 µM, the “Mean MIC, K. pneumoniae” value (K. pneumoniae) was 18 ± 12 µM and the “Mean MIC, P. aeruginosa” value (P. aeruginosa) was 24 ± 8 µM. The “Mean MIC, S. aureus” value (S. aureus) was 18 ± 12 µM and the “MBEC (minimum biofilm elimination concentration, no detectable biomass)” value [1] was 2 µM.
In the case of RRRRRWWWWV [L-RWV10], the “Mean MIC, A. baumannii” value (A. baumannii) is reported as 8.5 ± 3.6 µM, the “Mean MIC, E. coli” value (E. coli) is reported as 8 µM and the “Mean MIC, E. faecium” value (E. faecium) is reported as 21 ± 9.5 µM. For the same sequence, the “Mean MIC, Enterobacter spp.” value (Enterobacter spp.) was 32 µM, the “Mean MIC, K. pneumoniae” value (K. pneumoniae) was 26 ± 8.2 µM and the “Mean MIC, P. aeruginosa” value (P. aeruginosa) was 22 ± 7.7 µM. The “Mean MIC, S. aureus” value (S. aureus) was 26 ± 8 µM.
With RRRRRRRWWWWVVV [L-RWV14] the “Mean MIC, A. baumannii” value (A. baumannii) was 7.4 ± 6.2 µM, the “Mean MIC, E. coli” value (E. coli) was 4.4 ± 2.7 µM and the “Mean MIC, E. faecium” value (E. faecium) was 19 ± 11 µM. The “Mean MIC, Enterobacter spp.” value (Enterobacter spp.) was 16.9 ± 14 µM, the “Mean MIC, K. pneumoniae” value (K. pneumoniae) was 3 ± 1 µM and the “Mean MIC, P. aeruginosa” value (P. aeruginosa) was 21 ± 9 µM. The “Mean MIC, S. aureus” value (S. aureus) was 3 ± 1 µM and the “MBEC (minimum biofilm elimination concentration, no detectable biomass)” value [1] was 2.6 ± 1.2 µM.
For RRVWRWVRRVWRWVRR [H-RWV16], the “Lytic effect on human RBCs relative to L-RWV12” value (human red blood cells) was 3 fold.
With RRRRRRRRWWWWVVVV [L-RWV16] the “Mean MIC, A. baumannii” value (A. baumannii) was 21 ± 11 µM, the “Mean MIC, E. coli” value (E. coli) was 24 ± 10 µM and the “Mean MIC, E. faecium” value (E. faecium) was 32 µM. The “Mean MIC, Enterobacter spp.” value (Enterobacter spp.) was 32 µM, the “Mean MIC, K. pneumoniae” value (K. pneumoniae) was 32 µM and the “Mean MIC, P. aeruginosa” value (P. aeruginosa) was 32 µM. For the same sequence, the “Mean MIC, S. aureus” value (S. aureus) was 32 µM.
For RRVWRWVRRWWRRV [H-RWV14], the RBC lysis was 3%, the “Mean MIC, A. baumannii” value (A. baumannii) was 8 ± 5.6 µM and the “Mean MIC, E. faecium” value (E. faecium) was 17 ± 12 µM. For the same sequence, the “Mean MIC, Enterobacter spp.” value (Enterobacter spp.) was 7.2 ± 5.6 µM, the “Mean MIC, K. pneumoniae” value (K. pneumoniae) was 7.5 ± 12 µM and the “Mean MIC, P. aeruginosa” value (P. aeruginosa) was 12 ± 4 µM. The “Mean MIC, S. aureus” value (S. aureus) was 7.5 ± 12 µM and the “MBEC (minimum biofilm elimination concentration, no detectable biomass)” value [1] was 1.7 ± 0.5 µM.
For RRWWRRVWRW [H-RWV10], the “Mean MIC, A. baumannii” value (A. baumannii) was 22 ± 12 µM, the “Mean MIC, E. coli” value (E. coli) was 22 ± 8.8 µM and the “Mean MIC, E. faecium” value (E. faecium) was 19 ± 13 µM. The “Mean MIC, Enterobacter spp.” value (Enterobacter spp.) was 32 µM, the “Mean MIC, K. pneumoniae” value (K. pneumoniae) was 29 ± 6.5 µM and the “Mean MIC, P. aeruginosa” value (P. aeruginosa) was 24 ± 8 µM. The “Mean MIC, S. aureus” value (S. aureus) was 29 ± 6.5 µM.
With RRRRRRWWWWVV [L-RWV12] the “Mean MIC, E. coli” value (E. coli) was 4.6 ± 1.6 µM and the “MBEC (minimum biofilm elimination concentration, no detectable biomass)” value [1] was 2.5 ± 1.3 µM.
